How the values were obtained:
[1] = tested on: Jurkat (T-lymphocyte) cells; test: Selective toxicity, cell viability by MTT or XTT, uninfected control cells; assay type: cell-based
Experimental: For purposes of the following experiments and unless otherwise specified, the standard DEAE/Dex concentration is about 6.0 to about 6.9 molar DEAE/0.1 molar Dex.
Selective Toxicity. Wells with 10^6 Jurkat (T-lymphocyte) cells were infected with HIV at Multiplicities of Infection (MOI—the number of viral particles vs. infectable cells) of 0.1 or 0.01 for 4 hours. The cells are treated with Dex, DEAE, DEAE/DEX or control for 48 hours. Cell viability was assayed by MTT or XTT method. In the control (uninfected) cells, standard concentrations of Dex, DEAE and DEAE/Dex are non-toxic (within standard deviation).

HIV = HIV replication in JC53 cells, viral core antigen P24 antibody kit; assay type: cell-based; settings: Dex alone from greater or equal to 0.1 μmolar, effect topped out
Experimental: In another experiment, JC53 cells (HeLa cancer cells engineered to express CD4 and CCR5 receptors for HIV) are treated with HIV and the relevant agents to determine if DEAE inhibit HIV replication, using commercial antibody kit for viral core antigen P24 to assess level of virus production. […] The virus appears able to propagate and infect other cells. Dex alone indicated a 50% HIV activity inhibition from greater or equal to 0.1 μmolar. […] Similarly, 0.02 μmolar AZT alone has 40% inhibition of HIV replication.

SMILES: C[C@@H]1C[C@H]2[C@@H]3CCC4=CC(=O)C=C[C@]4(C)[C@@]3(F)[C@@H](O)C[C@]2(C)[C@@]1(O)C(=O)CO [Dex, dexamethasone]
- toxicity (cell viability) [1]: non-toxic
- HIV activity inhibition (HIV): 50%
